Laboratory results as given in ChEMBL document CHEMBL3867468, “Discovery of 4-chloro-3-(5-(pyridin-3-yl)-1,2,4-oxadiazole-3-yl)benzamides as novel RET kinase inhibitors” (Bioorg Med Chem Lett, 2016).

Tested on: not listed separately
Assay: Inhibition of CCDC6/RET V804M mutant (unknown origin) expressed in mouse BaF3 cells assessed as reduction in cell proliferation after 72 hrs by MTT assay
Assay type: cell-based
Conditions: BaF3, 72 h

Row | Compound | IC50 [nM]
1 | CN1CCN(Cc2ccc(NC(=O)c3ccc(Cl)c(-c4noc(-c5cncc(-c6cnn(C)c6)c5)n4)c3)cc2C(F)(F)F)CC1 | 442
2 | Cc1ccc(C(=O)Nc2ccc(CN3CCN(C)CC3)c(C(F)(F)F)c2)cc1C#Cc1cnc2cccnn12 [PONATINIB] | 136

Biological target: Proto-oncogene tyrosine-protein kinase receptor Ret (Homo sapiens, UniProt P07949)
Conditions: not given

Sequence of Proto-oncogene tyrosine-protein kinase receptor Ret (P07949 whole entry): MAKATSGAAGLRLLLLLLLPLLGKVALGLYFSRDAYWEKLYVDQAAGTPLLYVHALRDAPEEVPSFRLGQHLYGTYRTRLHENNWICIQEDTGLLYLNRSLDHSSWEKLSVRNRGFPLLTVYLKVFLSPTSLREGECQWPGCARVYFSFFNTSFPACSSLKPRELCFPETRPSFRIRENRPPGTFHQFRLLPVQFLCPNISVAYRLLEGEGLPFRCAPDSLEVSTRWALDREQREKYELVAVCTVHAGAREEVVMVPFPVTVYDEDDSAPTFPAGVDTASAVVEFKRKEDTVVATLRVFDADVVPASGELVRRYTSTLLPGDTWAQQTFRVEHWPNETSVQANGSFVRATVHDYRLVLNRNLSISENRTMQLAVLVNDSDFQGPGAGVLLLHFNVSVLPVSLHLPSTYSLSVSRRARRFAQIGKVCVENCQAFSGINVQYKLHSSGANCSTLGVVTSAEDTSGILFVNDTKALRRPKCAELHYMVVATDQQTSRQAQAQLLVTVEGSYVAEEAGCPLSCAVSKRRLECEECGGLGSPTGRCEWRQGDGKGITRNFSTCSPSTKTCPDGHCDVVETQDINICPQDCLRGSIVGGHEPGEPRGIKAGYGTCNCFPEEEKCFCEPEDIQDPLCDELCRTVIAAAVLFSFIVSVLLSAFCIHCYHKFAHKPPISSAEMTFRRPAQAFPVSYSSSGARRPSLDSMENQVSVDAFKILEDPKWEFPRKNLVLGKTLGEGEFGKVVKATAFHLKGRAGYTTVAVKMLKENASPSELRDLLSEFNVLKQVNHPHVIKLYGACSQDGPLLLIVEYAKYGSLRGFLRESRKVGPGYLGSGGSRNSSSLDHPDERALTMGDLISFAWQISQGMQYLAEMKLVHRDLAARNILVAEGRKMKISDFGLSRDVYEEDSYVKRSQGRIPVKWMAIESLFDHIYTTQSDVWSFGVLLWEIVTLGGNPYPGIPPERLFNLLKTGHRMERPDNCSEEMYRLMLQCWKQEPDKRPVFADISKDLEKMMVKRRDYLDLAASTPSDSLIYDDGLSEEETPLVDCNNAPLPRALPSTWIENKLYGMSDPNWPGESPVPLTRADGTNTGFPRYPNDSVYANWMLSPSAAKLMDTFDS

Row | Compound | IC50 [nM]
3 | CN1CCN(Cc2ccc(NC(=O)c3ccc(Cl)c(-c4noc(-c5cncc(-c6cnn(C)c6)c5)n4)c3)cc2C(F)(F)F)CC1 | 1.8
4 | CN1CCN(Cc2ccc(NC(=O)c3ccc(Cl)c(-c4noc(-c5ccncc5)n4)c3)cc2C(F)(F)F)CC1 | 26.6
5 | CN1CCN(Cc2ccc(NC(=O)c3ccc(Cl)c(-c4nnc(-c5cccnc5)o4)c3)cc2C(F)(F)F)CC1 | 138
6 | CN1CCN(Cc2ccc(NC(=O)c3ccc(Cl)c(C#Cc4cccnc4)c3)cc2C(F)(F)F)CC1 | 2.5
7 | CN1CCN(Cc2ccc(NC(=O)c3ccc(Cl)c(-c4nc(-c5cccnc5)co4)c3)cc2C(F)(F)F)CC1 | 21.4
8 | CN1CCN(Cc2ccc(NC(=O)c3cccc(-c4noc(-c5cccnc5)n4)c3)cc2C(F)(F)F)CC1 | 17.9
9 | CN1CCN(Cc2ccc(NC(=O)c3ccc(Cl)c(-c4noc(-c5cncc(N6CCOCC6)c5)n4)c3)cc2C(F)(F)F)CC1 | 2.1
10 | CN1CCN(Cc2ccc(NC(=O)c3ccc(Cl)c(-c4cnc(-c5cccnc5)o4)c3)cc2C(F)(F)F)CC1 | 19.4
11 | COc1ccc(-c2nc(-c3cc(C(=O)Nc4ccc(CN5CCN(C)CC5)c(C(F)(F)F)c4)ccc3Cl)no2)cn1 | 342
12 | CN1CCN(Cc2ccc(NC(=O)c3ccc(Cl)c(-c4noc(-c5cccnc5)n4)c3)cc2C(F)(F)F)CC1 | 7.3
13 | Cc1ccc(C(=O)Nc2ccc(CN3CCN(C)CC3)c(C(F)(F)F)c2)cc1-c1noc(-c2cccnc2)n1 | 108
14 | CN1CCN(Cc2ccc(NC(=O)c3ccc(Cl)c(-c4nc(-c5cccnc5)no4)c3)cc2C(F)(F)F)CC1 | 12.4
15 | COCCOc1cncc(-c2nc(-c3cc(C(=O)Nc4ccc(CN5CCN(C)CC5)c(C(F)(F)F)c4)ccc3Cl)no2)c1 | 11.4
